Experimental data reported in patent publication US20200080076A1, “Expressed Barcode Libraries and Uses Thereof” (The Broad Institute, Inc., priority 2018, published 2020).

Tests used:
[1] = system: Watermelon-transduced PC-9 cells; assay: Sensitivity of Watermelon-transduced PC-9 cells to EGFR-TKIs, number of mCherry objects; format: cell-based; settings: varying concentrations (FIGS. 6B and 6C)
Text: FIGS. 6A-6D show the modeling of non-inherited drug resistance of PC-9 cells to EGFR tyrosine kinase inhibitors (EGFR-TKI).

OVCAR3 H2B-GFP cells = assay: In vitro platinum-sensitive relapse model, live cell number by time-lapse imaging; format: cell-based; settings: six days of treatment, FIG. 1C carboplatin 6.25 μM, FIG. 1D cisplatin 50 μM
Text: FIGS. 1A-1E show the in vitro modeling of non-inherited drug resistance. […] FIGS. 1B-1E show relapse dynamics. Length of drug treatments are indicated as red shaded areas within the graphs. […] While much effort has been focused on experimental models to study the emergence of platinum-resistance (Cunnea & Stronach, Front Oncol 4:81 (2014)), little attention has been given to the development of robust methods to model platinum-sensitive relapse. As the clinical classification of relapse is based both on the effectiveness of the treatment and the time to recurrence, the present study aimed to establish a system that can capture both these aspects. Analogous to the CA125 levels that are used to monitor disease progression in patients, direct measurement of cell number was used to monitor response in vitro. To this end, an OVCAR3 H2B-GFP cell line was generated. OVCAR3 is a commonly used HGSOC model and the H2B-GFP allows the easy quantification of the number of live cells during the course of drug treatment. […] This response was quantified based on time-lapse images and a striking similarity was found between the pattern of platinum-sensitive relapse observed in patients (FIG. 1B), as measured by CA125 levels, and the pattern observed in vitro in this study (FIG. 1C-D). […]

`C=CC(=O)Nc1cc(Nc2nccc(-c3cn(C)c4ccccc34)n2)c(OC)cc1N(C)CCN(C)C` [osimertinib] was tested, and the “sensitivity of cells to EGFR-TKI (number of mCherry objects)” value [1] was “sensitive”.

With `N.N.O=C([O-])C1(C(=O)[O-])CCC1.[Pt+2]` [carboplatin] the “response of cells to platinum treatment (number of live cells)” value (OVCAR3 H2B-GFP cells) was “the majority of cells died”.

`N.N.[Cl][Pt][Cl]` [cisplatin] was tested, and the “response of cells to platinum treatment (number of live cells)” value (OVCAR3 H2B-GFP cells) was “the majority of cells died”.
